According to patent publication US8119170B2, “Herbal compositions and methods for enhancing vital energy and athletic performance” (priority 2008, dated 2012):

Experiments:
[1] = system: L6 rat skeletal cells; experiment: MTT assay, viability of L6 cells under hypoxic conditions; format: cell-based; details: 80 μg/ml, 12 h pretreatment, 1 h hypoxia; vehicle 27% ± 1.3%; means ± SD
Experimental: L6 cells were cultured in 96-well tissue culture plates (1×10^4 cell/well) with 10% FBS for 24 hours. Serum-free medium was then used for another 24 hours prior to treatment with RGC, Rhodiola crenulata extract, or Ginkgo biloba extract. Cell viability and proliferation were measured by the 3-(4,5-dimethylthiazol-2-yl)-2,5-diphenyltetrazolium bromide (MTT) and 5-bromo-2′-deoxyuridine (BrdU) (Roche Diagnostics, USA) incorporation assays, respectively.
The L6 cells were plated in 96-well plates (5000 cell/well) for 24 hours. Then the serum-free medium was used and cells incubated for another 12 hours. Sequentially, cells were pretreated with various concentrations (20 μg/ml, 40 μg/ml, 80 μg/ml) of RG, Rhodiola Crenulata, or Ginkgo biloba, respectively, or Vitamin C (80 μg/ml) for 12 hours, followed by exposure to an ischemic solution (EBSS) and placed in an anaerobic chamber (Diagnostic System) for 1 hour. The control cells were incubated without treatment for 1 hour. After 1 hour exposure to hypoxic and ischemic environments, 100 μl MTT (0.5 mg/ml in PBS) was added to each well and the cells were incubated at 37° C. for 4 h. The MTT solution was prepared by dissolving 250 mg of MTT in 50 ml PBS (0.01 mol/L, PH7.4) to prepare 0.5% MTT staining solution. The solution was then filtered through Millipore membrane and stored at 4° C. […]

[2] = system: L6 rat skeletal cells; experiment: SOD antioxidant assay, SOD activity of L6 cells under hypoxic conditions; format: cell-based; details: 80 μg/ml, hypoxic condition; vehicle 16.58% ± 0.31%; means ± SD
Experimental: Cells were homogenized in ice-cold phosphate buffer (50 mmol/L, pH 7.4) to make 10% w/v homogenate with a motor-driven Potter-Elvejhem glass homogenizer at 0-4° C. The homogenate will be then centrifuged at 300 g for 10 min at 4° C. to remove intact cells and debris. The remaining supernatant was divided into 2 parts for different enzyme assays. For SOD assays, the supernatant will be centrifuged at 2300 g for a further 10 min at 4° C. After centrifugation, the pellets will be discarded and the supernatants were used for the assessment of enzyme activity. The procedure was carried out on ice or at 0-4° C. Reagents for the assay were obtained through a commercially available SOD Assay Kit.
The samples were mixed and placed in a water bath at 37° C. for 40 min. A chromogenic agent (200 μl) was then added, the samples mixed, then left at room temperature for 10 min before absorbance at 550 nm was detected. The Inhibition ration was then calculated using the formula: Inhibition ratio=(ODn−OD1)/OD1×100%. […] The protein concentration was measured using the BCA protein quantitative assay.
After 10 μl was selected for use for the SOD assays, SOD activity assays were performed for the samples of the various treatment groups (20 μg/ml, 40 μg/ml, or 80 μg/ml of RG, Rhodiola Crenulata, or Ginkgo biloba, respectively, and 80 μg/ml of Vitamin C) where the sample volumes were as shown in Table 10. […]

O=C1O[C@H]([C@@H](O)CO)C(O)=C1O [Vitamin C]
Cell proliferation in hypoxic conditions (cell survival rate, MTT) [1]: 41% ± 3.2% | SOD Enzymatic Activity [2]: 20.00% ± 0.08%
